Test results taken from patent publication US20250144223A1, “PROTEIN DEGRADATION COMPOUND BASED ON NAMPT TARGET PROTEIN AND APPLICATION THEREOF” (GLUETACS THERAPEUTICS (SHANGHAI) CO., LTD., priority 2021, published 2025).

System: Jurkat
Assay: CellTiter-Glo Luminescent Cell Viability Assay, half inhibitory concentration (IC50) on tumor cell proliferation
Format: cell-based
Details: Homo sapiens, Jurkat cells, 72 h treatment
Protocol: The tumor cells used herein were cultured in a cell culture medium at 37° C. in an incubator with 5% CO2, where the cell culture medium was supplemented with 10% FBS, as well as penicillin at a final concentration of 100 U/mL and streptomycin at a final concentration of 100 μg/mL. Prior to experimentation, all cells used were identified as correct cells by STR cells, and were negative for mycoplasma through routine testing.
IC50 values of the compounds of the present disclosure (including the compounds in Table 1 and compounds of examples) were measured using the CellTiter-Glo® Luminescent Cell Viability Assay kit from Promega Corporation. Assay details are as follows: Cells were seeded in 100 μL RPMI1640 medium containing serum at a density of 20,000 cells/well. After 24 h, the inoculated cells were treated with the compounds of the present disclosure which were serially diluted. After the cells were treated with the compounds of the present disclosure for 72 h, the CellTiter-Glo® reagent was added to the culture medium for cell viability assessment according to the instructions provided with the kit. DMSO served as the negative control, and FK866 inhibitor was used as the positive control, both treated with the same protocol as the compounds of the present disclosure. The growth inhibition of the compounds of the present disclosure on cells was plotted by Prism Graphpad software, and the IC50 values of the compounds of the present disclosure were calculated therefrom.

Row | SMILES | IC50
1 | O=C(/C=C/c1cccnc1)NCCCCC1CCN(C(=O)c2ccc(N3CCNCC3)cc2)CC1 [SIAIS630006, (E)-N-(4-(1-(4-(piperazin-1-yl)benzoyl)piperidin-4-yl)butyl)-3-(pyridin-3-yl)acrylamide] | 3 nM
2 | Cc1ncsc1-c1ccc(CNC(=O)[C@@H]2C[C@@H](O)CN2C(=O)[C@@H](NC(=O)CCCCC(=O)N2CCN(c3ccc(C(=O)N4CCC(CCCCNC(=O)/C=C/c5cccnc5)CC4)cc3)CC2)C(C)(C)C)cc1 [SIAIS630007, (2S,4R)-1-((S)-3,3-dimethyl-2-(6-oxo-6-(4-(4-(4-(4-((E)-3-(pyridin-3-yl)acrylamido)butyl)piperidine-1-carbonyl)phenyl)piperazin-1-yl)hexanamido)butanoyl)-4-hydroxy-N-(4-(4-methylthiazol-5-yl)benzyl)pyrrolidine-2-carboxamide] | 109 nM
3 | Cc1ncsc1-c1ccc(CNC(=O)[C@@H]2C[C@@H](O)CN2C(=O)[C@@H](NC(=O)CCCCCCCCCCCCCCC(=O)N2CCN(c3ccc(C(=O)N4CCC(CCCCNC(=O)/C=C/c5cccnc5)CC4)cc3)CC2)C(C)(C)C)cc1 [SIAIS630008, (2S,4R)-1-((S)-3,3-dimethyl-2-(16-oxo-16-(4-(4-(4-(4-((E)-3-(pyridin-3-yl)acrylamido)butyl)piperidine-1-carbonyl)phenyl)piperazin-1-yl)hexadecanamido)butanoyl)-4-hydroxy-N-(4-(4-methylthiazol-5-yl)benzyl)pyrrolidine-2-carboxamide] | 96.2 nM
4 | O=C(/C=C/c1cccnc1)NCCCCC1CCN(C(=O)c2ccc(N3CCN(C(=O)CCNc4cccc5c4C(=O)N(C4CCC(=O)NC4=O)C5=O)CC3)cc2)CC1 (stereo not drawn) [SIAIS630009, (E)-N-(4-(1-(4-(4-(3-((2-(2,6-dioxopiperidin-3-yl)-1,3-dioxoisoindolin-4-yl)amino)propanoyl)piperazin-1-yl)benzoyl)piperidin-4-yl)butyl)-3-(pyridin-3-yl)acrylamide] | 2.29 nM
5 | O=C(/C=C/c1cccnc1)NCCCCC1CCN(C(=O)c2ccc(N3CCN(C(=O)CCCNc4cccc5c4C(=O)N(C4CCC(=O)NC4=O)C5=O)CC3)cc2)CC1 (stereo not drawn) [SIAIS630010, (E)-N-(4-(1-(4-(4-(4-((2-(2,6-dioxopiperidin-3-yl)-1,3-dioxoisoindolin-4-yl)amino)butanoyl)piperazin-1-yl)benzoyl)piperidin-4-yl)butyl)-3-(pyridin-3-yl)acrylamide] | 0.351 nM
6 | O=C(/C=C/c1cccnc1)NCCCCC1CCN(C(=O)c2ccc(N3CCN(C(=O)CCCCNc4cccc5c4C(=O)N(C4CCC(=O)NC4=O)C5=O)CC3)cc2)CC1 (stereo not drawn) [SIAIS630011, (E)-N-(4-(1-(4-(4-(5-((2-(2,6-dioxopiperidin-3-yl)-1,3-dioxoisoindolin-4-yl)amino)pentanoyl)piperazin-1-yl)benzoyl)piperidin-4-yl)butyl)-3-(pyridin-3-yl)acrylamide] | 2.85 nM
7 | O=C(/C=C/c1cccnc1)NCCCCC1CCN(C(=O)c2ccc(N3CCN(C(=O)CCCCCCNc4cccc5c4C(=O)N(C4CCC(=O)NC4=O)C5=O)CC3)cc2)CC1 (stereo not drawn) [SIAIS630012, (E)-N-(4-(1-(4-(4-(7-((2-(2,6-dioxopiperidin-3-yl)-1,3-dioxoisoindolin-4-yl)amino)heptanoyl)piperazin-1-yl)benzoyl)piperidin-4-yl)butyl)-3-(pyridin-3-yl)acrylamide] | 2.82 nM
8 | O=C(/C=C/c1cccnc1)NCCCCC1CCN(C(=O)c2ccc(N3CCN(C(=O)CSc4cccc5c4CN(C4CCC(=O)NC4=O)C5=O)CC3)cc2)CC1 (stereo not drawn) [SIAIS630013, (E)-N-(4-(1-(4-(4-(2-((2-(2,6-dioxopiperidin-3-yl)-1-oxoisoindolin-4-yl)thio)acetyl)piperazin-1-yl)benzoyl)piperidin-4-yl)butyl)-3-(pyridin-3-yl)acrylamide] | 190 nM
9 | O=C(/C=C/c1cccnc1)NCCCCC1CCN(C(=O)c2ccc(N3CCN(C(=O)CCCCSc4cccc5c4CN(C4CCC(=O)NC4=O)C5=O)CC3)cc2)CC1 (stereo not drawn) [SIAIS630014, (E)-N-(4-(1-(4-(4-(5-((2-(2,6-dioxopiperidin-3-yl)-1-oxoisoindolin-4-yl)thio)pentanoyl)piperazin-1-yl)benzoyl)piperidin-4-yl)butyl)-3-(pyridin-3-yl)acrylamide] | 1.99 nM
10 | O=C(/C=C/c1cccnc1)NCCCCN1CCN(C(=O)c2ccc(N3CCNCC3)cc2)CC1 [SIAIS630020, (E)-N-(4-(4-(4-(piperazin-1-yl)benzoyl)piperazin-1-yl)butyl)-3-(pyridin-3-yl)acrylamide] | 849 nM

More lines, now with the values ahead:

Row | IC50 | SMILES
11 | 1.14 nM | O=C(/C=C/c1cccnc1)NCCCCC1CCN(C(=O)c2ccc(N3CCN(C(=O)CCCCCSc4cccc5c4CN(C4CCC(=O)NC4=O)C5=O)CC3)cc2)CC1 (stereo not drawn) [SIAIS630037, (E)-N-(4-(1-(4-(4-(6-((2-(2,6-dioxopiperidin-3-yl)-1-oxoisoindolin-4-yl)thio)hexanoyl)piperazin-1-yl)benzoyl)piperidin-4-yl)butyl)-3-(pyridin-3-yl)acrylamide]
12 | 24.7 nM | O=C(/C=C/c1cccnc1)NCCCCC1CCN(C(=O)c2ccc(N3CCN(C(=O)COCCSc4cccc5c4CN(C4CCC(=O)NC4=O)C5=O)CC3)cc2)CC1 (stereo not drawn) [SIAIS630038, (E)-N-(4-(1-(4-(4-(2-(2-((2-(2,6-dioxopiperidin-3-yl)-1-oxoisoindolin-4-yl)thio)ethoxy)acetyl)piperazin-1-yl)benzoyl)piperidin-4-yl)butyl)-3-(pyridin-3-yl)acrylamide]
13 | 7.96 nM | O=C(/C=C/c1cccnc1)NCCCCC1CCN(C(=O)c2ccc(N3CCN(C(=O)COCCOCCSc4cccc5c4CN(C4CCC(=O)NC4=O)C5=O)CC3)cc2)CC1 (stereo not drawn) [SIAIS630039, (E)-N-(4-(1-(4-(4-(2-(2-(2-((2-(2,6-dioxopiperidin-3-yl)-1-oxoisoindolin-4-yl)thio)ethoxy)ethoxy)acetyl)piperazin-1-yl)benzoyl)piperidin-4-yl)butyl)-3-(pyridin-3-yl)acrylamide]
14 | 2.99 nM | O=C(/C=C/c1cccnc1)NCCCCC1CCN(C(=O)c2ccc(N3CCN(CCCCC#Cc4cccc5c4CN(C4CCC(=O)NC4=O)C5=O)CC3)cc2)CC1 (stereo not drawn) [SIAIS630119, (E)-N-(4-(1-(4-(4-(6-(2-(2,6-dioxopiperidin-3-yl)-1-oxoisoindolin-4-yl)hex-5-yn-1-yl)piperazin-1-yl)benzoyl)piperidin-4-yl)butyl)-3-(pyridin-3-yl)acrylamide]
15 | 28.3 nM | O=C(/C=C/c1cccnc1)NCCCCC1CCN(C(=O)c2ccc(N3CCN(CCCCCCCC#Cc4cccc5c4CN(C4CCC(=O)NC4=O)C5=O)CC3)cc2)CC1 (stereo not drawn) [SIAIS630122, (E)-N-(4-(1-(4-(4-(9-(2-(2,6-dioxopiperidin-3-yl)-1-oxoisoindolin-4-yl)non-8-yn-1-yl)piperazin-1-yl)benzoyl)piperidin-4-yl)butyl)-3-(pyridin-3-yl)acrylamide]
16 | 2.52 nM | O=C(/C=C/c1cccnc1)NCCCCC1CCN(C(=O)c2ccc(N3CCN(CCCCSc4cccc5c4CN(C4CCC(=O)NC4=O)C5=O)CC3)cc2)CC1 (stereo not drawn) [SIAIS630123, (E)-N-(4-(1-(4-(4-(4-((2-(2,6-dioxopiperidin-3-yl)-1-oxoisoindolin-4-yl)thio)butyl)piperazin-1-yl)benzoyl)piperidin-4-yl)butyl)-3-(pyridin-3-yl)acrylamide]
17 | 2.93 nM | O=C(/C=C/c1cccnc1)NCCCCC1CCN(C(=O)c2ccc(N3CCN(CCCC#Cc4cccc5c4CN(C4CCC(=O)NC4=O)C5=O)CC3)cc2)CC1 (stereo not drawn) [SIAIS630129, (E)-N-(4-(1-(4-(4-(5-(2-(2,6-dioxopiperidin-3-yl)-1-oxoisoindolin-4-yl)pent-4-yn-1-yl)piperazin-1-yl)benzoyl)piperidin-4-yl)butyl)-3-(pyridin-3-yl)acrylamide]
18 | 24.2 nM | O=C(/C=C/c1cccnc1)NCCCCC1CCN(C(=O)c2ccc(N3CCN(CCSc4cccc5c4CN(C4CCC(=O)NC4=O)C5=O)CC3)cc2)CC1 (stereo not drawn) [SIAIS630130, (E)-N-(4-(1-(4-(4-(2-((2-(2,6-dioxopiperidin-3-yl)-1-oxoisoindolin-4-yl)thio)ethyl)piperazin-1-yl)benzoyl)piperidin-4-yl)butyl)-3-(pyridin-3-yl)acrylamide]
19 | 4.38 nM | O=C(/C=C/c1cccnc1)NCCCCC1CCN(C(=O)c2ccc(N3CCN(CCCSc4cccc5c4CN(C4CCC(=O)NC4=O)C5=O)CC3)cc2)CC1 (stereo not drawn) [SIAIS630131, (E)-N-(4-(1-(4-(4-(3-((2-(2,6-dioxopiperidin-3-yl)-1-oxoisoindolin-4-yl)thio)propyl)piperazin-1-yl)benzoyl)piperidin-4-yl)butyl)-3-(pyridin-3-yl)acrylamide]
20 | 6.29 nM | O=C(/C=C/c1cccnc1)NCCCCC1CCN(C(=O)c2ccc(N3CCN(CCCCCSc4cccc5c4CN(C4CCC(=O)NC4=O)C5=O)CC3)cc2)CC1 (stereo not drawn) [SIAIS630132, (E)-N-(4-(1-(4-(4-(5-((2-(2,6-dioxopiperidin-3-yl)-1-oxoisoindolin-4-yl)thio)pentyl)piperazin-1-yl)benzoyl)piperidin-4-yl)butyl)-3-(pyridin-3-yl)acrylamide]
21 | 6.37 nM | O=C(/C=C/c1cccnc1)NCCCCC1CCN(C(=O)c2ccc(N3CCN(CCCCCCSc4cccc5c4CN(C4CCC(=O)NC4=O)C5=O)CC3)cc2)CC1 (stereo not drawn) [SIAIS630133, (E)-N-(4-(1-(4-(4-(6-((2-(2,6-dioxopiperidin-3-yl)-1-oxoisoindolin-4-yl)thio)hexyl)piperazin-1-yl)benzoyl)piperidin-4-yl)butyl)-3-(pyridin-3-yl)acrylamide]
